Results on three molecules are retold here after US5292521A, “Solid oral preparation containing a pyrrolidine derivative with a catechol group” (priority 1990, dated 1994).

Molecules are shown by their SMILES. Read-outs that look alike come from different tables or passages of the source.

A short description of data set [1]: Correlation between AUC and oral dose in beagles, powder of ten-fold dilution with lactose in capsule; bioavailability from regression line (Experimental Example 2). The data set is classed as in vivo. The settings on record: oral. The procedure:
Compound (VIII) or compound V was formulated into a powder of ten-fold dilution with lactose. It was given to beagles in an amount ranging from 0.3 to 30 mg/kg as a capsule by oral administration and the plasma concentration-time curve thereof was prepared. The regression line equation was as follows: […]

Data set [2] is described as follows: Drug disposition after intravenous injection to beagles, plasma concentration-time curve (Experimental Example 1). The data set is classed as in vivo. The settings on record: dog, 1 mg/kg iv; for half-life: iv, 1 mg/kg. The procedure: 1 mg/kg of compound (VIII) was administered to beagles by intravenous injection and the plasma concentration-time curve thereof of prepared to find that the half-life composed of three phases (phases a, b and c).

Data set [3] is described as follows: Oral administration to fasted beagles of compound (II) or (III) with ascorbic acid, plasma drug disposition parameters (Experimental Examples 5 and 6). The following applies: for AUC(0-t) at 8 h / Cmax / Tmax: po, 3 mg/kg, n=2; for AUC(0-t) at 8 h: AUC (0-8 hr) mean ± SE; for Cmax: Cmax mean ± SE; for Tmax: Tmax mean ± SE. On the procedure:
The term "bioavailability" herein is defined as follows: a plasma concentration-time curve of a drug after being administered once is prepared in each case of administration by intravenous injection and oral administration with the same amount of the drug, and the availability is represented by the ratio (F) of the area under the plasma concentration-time curve in the case of oral administration ([AUC]PO)to the area under the plasma concentration-time curve in the case of intravenous injection ([AUC]IV): [formula]
The ratio of an AUC value obtained when one or more compounds selected from the group consisting of organic acids and salts thereof are added to an AUC value obtained when no such compound(s) is (are) added will be referred to as "addition effect ratio".
350 mg of ascorbic acid and 70 mg of lactose were added to 70 mg of compound (II) and the mixture was thoroughly pulverized and mixed in a mortar. The mixture was filled in each of No. 2 gelatin capsules in such an amount that the dose of compound (II) would be 3 mg/kg to obtain a preparation.
A control sample free from ascorbic acid was prepared by preparing a powder of 7-fold dilution with lactose (70 mg of compound (II) plus 420 mg of lactose) and filled in No. 2 capsules in such an amount that the dose of compound (II) would be 3 mg/kg to obtain a preparation.
(a) Administration and collection of blood sample
(§1) Four beagles were divided into two groups (i.e. a group to which ascorbic acid was given and a control group) after fasting overnight (14 hours) and a preparation comprising 3 mg/kg of compound (II) and 15 mg/kg of ascorbic acid or a control preparation comprising no ascorbic acid was given together with 30 ml of water by oral administration. No food was given also in the course of collection of blood sample. 3 ml of the whole blood was sampled through a vein of a foreleg by means of a heparinized syringe, immediately cooled with ice/water and centrifuged (1200 rpm, 3 min, 4° C.). The blood plasma was separated and a citrate buffer solution (pH 3.5, 100 μl) was added thereto to adjust the pH to 5.0. The plasma thus treated was kept frozen at -20° C. The points of collection of blood samples were before the administration and 10, 20, 30 and 45 minutes and 1, 1.5, 2, 3, 4, 6 and 8 hours after the administration.
(b) Method of analysis of concentration of unchanged substance in blood plasma
(c) HPLC determination conditions
The drug disposition parameters of each sample were determined from the data obtained by the oral administration of the preparation comprising 3 mg/kg of compound (II) and 15 mg/kg of ascorbic acid or a control preparation comprising no ascorbic acid to beagles while they were kept fasting.
350 mg of ascorbic acid and 70 mg of lactose were added to 70 mg of compound (III) and the mixture was thoroughly pulverized and mixed in a mortar. The mixture was filled in each of No. 2 gelatin capsules in such an amount that the dose of compound (III) would be 3 mg/kg to obtain a preparation.
A control sample free from ascorbic acid was prepared by preparing a powder of 7-fold dilution with lactose (70 mg of compound (III) plus 420 mg of lactose) and filled in No. 2 capsules in such an amount that the dose of compound (III) would be 3 mg/kg to obtain a preparation.
as §1, with “(III)” for “(II)”, “syringe,” for “syringe, immediately”, “5.0.” for “5.0. The plasma thus treated was kept frozen at -20° C. The points of collection of blood samples were before the administration and 10, 20, 30 and 45 minutes and 1, 1.5, 2, 3, 4, 6 and 8 hours after the administration.”

[4] abbreviates: dog, in vivo, 3 mg/kg oral + ascorbic acid 15 mg/kg.
The mark [5] stands for this setting: dog, in vivo, 3 mg/kg oral, none (control).
Setting [6] is: dog, plasma, 3 mg/kg oral + ascorbic acid 15 mg/kg.
Where [7] appears, read: dog, plasma, 3 mg/kg oral, none (control).

For the molecule `Br.Oc1ccc([C@@H]2CNC[C@H]2c2cccc(O)c2Cl)cc1O` (relative stereo) [compound (VIII), trans-3-(2-chloro-3-hydroxyphenyl)-4-(3,4-dihydroxyphenyl)pyrrolidine hydrobromide], the bioavailability in data set [1] (dog, plasma, efficacious dose around 3 to 5 mg/kg) is 4 to 5%. Further, in data set [1] (0.3 to 30 mg/kg), the “gradient of regression line log(AUC) vs log(dose)” value is listed as 1.218, the “increase of AUC value when the dose is increased 10-fold” value is listed as 16.5 -fold and the “intercept of regression line log(AUC) vs log(dose)” value turned out to be 0.894. For the same molecule, the clearance in data set [2] (read-out: CLtotal) worked out at 78 mL/min/kg. The C0 in data set [2] (read-out: CP^0) came out at 2290 ng/mL. Besides, in data set [2] (read-out: MRT (mean residence time in the plasma) (converted)), the mean residence time (MRT) is 14.5 min. Moreover, in data set [2] (read-out: Vc), the Vd came out at 0.44 L/kg. The half-life in data set [2] (phase a, read-out: t1/2a) worked out at 1.3 min. Further, the half-life in data set [2] (phase b, read-out: t1/2b) was determined as 8.11 min. In data set [2] (phase c, read-out: t1/2c), the half-life is 26.9 min.
Regarding `Br.Oc1ccc(C2CNCc3c2ccc(O)c3O)cc1O` (stereo not drawn) [compound (II), 7,8-dihydroxy-4-(3,4-dihydroxyphenyl)-1,2,3,4-tetrahydroisoquinoline hydrobromide], the “Addition effect (AUC ratio)” value in data set [3] (3 mg/kg oral + ascorbic acid 15 mg/kg) is given as 1.39. Further, the “Addition effect (AUC ratio)” value in data set [3] (3 mg/kg oral, none (control)) was found to be 1.00. For the same molecule, in data set [3] (setting [4]), the AUC(0-t) at 8 h stood at 116.6 ± 0.1 ng·h/mL, the peak concentration (Cmax) is 89.6 ± 11.8 ng/mL and the time to peak (Tmax) came out at 37.8 ± 7.8 min. In addition, in data set [3] (setting [5]), the AUC(0-t) at 8 h came out at 83.6 ± 4.7 ng·h/mL, the Cmax worked out at 95.6 ± 42.2 ng/mL and the time to peak (Tmax) came to 25.2 ± 5.4 min. In addition, the “increase of AUC value” in data set [3] (with ascorbic acid) is listed as “about 1.4 -fold”.
For the molecule `CS(=O)(=O)O.Oc1ccc(C2CNCCc3c2cc(O)c(O)c3Cl)cc1` (stereo not drawn) [compound (III), 6-chloro-2,3,4,5-tetrahydro-1-(4-hydroxyphenyl)-1H-3-benzazepine-7,8-diol methanesulfonate, reference compound], the “increase of AUC value” in data set [3] (dog, in vivo) is given as “about 3.3 -fold”. In data set [3] (setting [6]), the area under the curve AUC(0-t) at 8 h was found to be 197 ± 12.5 ng·h/mL, the Cmax is 91.9 ± 0.4 ng/mL and the Tmax came to 30 ± 15 min. Moreover, in data set [3] (setting [7]), the AUC(0-t) at 8 h was 59.8 ± 16.9 ng·h/mL, the Cmax came out at 39 ± 16.6 ng/mL and the Tmax came out at 45 ± 15 min.

The term bioavailability denotes the share of a dose that reaches the circulation, judged against a reference dose that is usually intravenous. A low value points to poor availability. For orientation: MRT means the average time that molecules of a dose stay in the body. In general, AUC(0-t) refers to the area under the concentration-time curve up to a stated or last time point. For orientation: Cmax means the highest concentration seen after dosing. As usually defined, the Tmax is the time at which the peak concentration occurs.
